Publication PMC12525728, “Safety, Pharmacokinetics, Translational and Molecular Mechanistic Insights on the Prostate Cancer Recurrence Suppressor Pseurotin A” (Molecules, 2025)

Assay: Chemical stability of PsA in mice plasma (HPLC)
Assay type: in vitro ADME
Conditions: for Stability 24 h Room Temperature, Accuracy (%) / Stability −20 °C for 2 Weeks, Accuracy (%) / Stability Freeze-Thaw Cycles, Accuracy (%): mice plasma, n = 3; for Stability Freeze-Thaw Cycles, Accuracy (%): three cycles
Procedure: Chromatographic analysis was conducted on a Shimadzu HPLC system (Shimadzu USA Manufacturing Inc., Canby, OR, USA) equipped with an SPD-20A UV detector, 20 µL manual sampler, LC-20AD pump, a degasser, and an automated temperature-controlled column compartment. The UV detector, column oven, and LC-20AD pump were coupled to the Shimadzu system and controlled through Lab Solutions software, v5.111. Stationary phase separation was carried out using a Shimadzu Shim-Pack GWS C18 column (4.6 × 250 mm, 5 µm) equipped with a Zorbax ODS guard column (4.6 × 12.5 mm, 5 µm) by gradient elution with the column temperature maintained at 35 °C. The UV detector wavelength was set and measured at 254 nm. A constant flow rate of 1.0 mL/min and manual injection of 20 µL were employed throughout the HPLC analysis. A mobile phase consisting of aqueous HCOOH (0.1%, v/v, mobile system A) and HPLC grade CH3CN (mobile system B) utilized with a gradient elution of 30–60% B at 0–5 min, 60–85% B at 5–8 min, 85–95% B at 8–11.5 min, and 95% B at 11.5–18 min. The post-run re-equilibration time was 5 min.
Five µL of the IS ([…]) and 20 µL of 50, 40, 30, 20, 10, 8, and 4 µg/mL PsA standard solutions were combined with 15 µL freshly extracted blank mouse plasma. 300 µL of a 70% EtOAc/30% isopropanol mixture was added and vortexed for 30 s. Following centrifugation at 15,000× g for 10 min, the supernatant was transferred to a 2 mL Eppendorf tube for nitrogen evaporation. The residues were reconstituted in 25 µL HPLC-grade MeOH before being subjected to 30 s sonication followed by centrifugation at 15,000× g for 10 min. Afterwards, the entire sample was immediately injected for RP-HPLC analysis. The mouse plasma samples used in the PK study were subjected to the same extraction method, minus the addition of the PsA standard solutions. After weighing, each mouse organ was reconstituted in 500 µL PBS, then homogenized using the MISONIX Sonicator (Division of QSonica LLC, Newtown, CT, USA). Samples were centrifuged at 15,000× g for 10 min, and the supernatant was collected and transferred to a 2 mL Eppendorf. About 5 µL of IS (25 µL/mL) and 300 µL of a 70% EtOAc/30% isopropanol mixture were added to 100 µL of supernatant and vortexed for 30 s. Following centrifugation at 15,000× g for 10 min, the supernatant was transferred to a 2 mL Eppendorf tube and evaporated under N2. The remains were reconstituted in 40 µL HPLC-grade methanol before being subjected to 30 s sonication followed by centrifugation at 15,000× g for 10 min.
The stability of PsA at room temperature was determined by preparing six separate mouse plasma samples for each concentration. Three samples for each concentration were immediately extracted and injected into the HPLC. The three remaining samples were left on a lab bench protected from light for 24 h before being extracted and injected into the HPLC. The concentrations measured at the 0 and 24 h time points were compared. The stability of PsA after three freeze-thaw cycles was assessed by preparing six separate mouse plasma samples for each concentration. Three samples for each concentration were immediately extracted and injected into the HPLC. The three remaining samples for each concentration were frozen and thawed in a −80 °C freezer three separate times before being extracted and injected into the HPLC. The stability of PsA at −20 °C for 2 weeks was determined by preparing six separate mouse plasma samples for each concentration. Three samples for each concentration were immediately extracted and injected into the HPLC. The three remaining samples were left in a −20 °C freezer for two weeks before being thawed, extracted, and analyzed on the HPLC.

CC/C=C\[C@H](O)[C@H](O)C1=C(C)C(=O)[C@]2(O1)C(=O)N[C@@](OC)(C(=O)c1ccccc1)[C@@H]2O [PsA, pseurotin A]
Stability 24 h Room Temperature, Accuracy (%) (4 µg/mL): 35.2%
Stability −20 °C for 2 Weeks, Accuracy (%) (4 µg/mL): 83.6%
Stability Freeze-Thaw Cycles, Accuracy (%) (4 µg/mL): 94.0%
Stability 24 h Room Temperature, Accuracy (%) (50 µg/mL): 35.5%
Stability −20 °C for 2 Weeks, Accuracy (%) (50 µg/mL): 93.5%
Stability Freeze-Thaw Cycles, Accuracy (%) (50 µg/mL): 108.1%
Stability 24 h Room Temperature, Accuracy (%) (250 µg/mL): 48.8%
Stability −20 °C for 2 Weeks, Accuracy (%) (250 µg/mL): 90.6%
Stability Freeze-Thaw Cycles, Accuracy (%) (250 µg/mL): 100.6%
concentration loss (mouse plasma, room temperature, 24 h): over 50%
